Test results as given in PubChem BioAssay (NCI).
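At the GI50, growth is halved. At the TGI there is no net growth.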

Legend:
Test in all cases: NCI-60 cell line screen, 384-well format
786-0 renal = tested on: 786-0 renal
A498 renal = tested on: A498 renal
A549 NSCLC = tested on: A549 NSCLC
ACHN renal = tested on: ACHN renal
BT-549 breast = tested on: BT-549 breast
CAKI-1 renal = tested on: CAKI-1 renal
CCRF-CEM leukemia = tested on: CCRF-CEM leukemia
COLO 205 colon = tested on: COLO 205 colon
DU-145 prostate = tested on: DU-145 prostate
EKVX NSCLC = tested on: EKVX NSCLC
HCC-2998 colon = tested on: HCC-2998 colon
HCT-15 colon = tested on: HCT-15 colon
HL-60(TB) leukemia = tested on: HL-60(TB) leukemia
HOP-62 NSCLC = tested on: HOP-62 NSCLC
HOP-92 NSCLC = tested on: HOP-92 NSCLC
HS 578T breast = tested on: HS 578T breast
HT29 colon = tested on: HT29 colon
IGROV1 ovarian = tested on: IGROV1 ovarian
KM12 colon = tested on: KM12 colon
M14 melanoma = tested on: M14 melanoma
MALME-3M melanoma = tested on: MALME-3M melanoma
MCF7 breast = tested on: MCF7 breast
MDA-MB-231 breast = tested on: MDA-MB-231 breast
MDA-MB-435 melanoma = tested on: MDA-MB-435 melanoma
MDA-MB-468 breast = tested on: MDA-MB-468 breast
MOLT-4 leukemia = tested on: MOLT-4 leukemia
NCI-H226 lung = tested on: NCI-H226 lung
NCI-H23 lung = tested on: NCI-H23 lung
NCI-H322M lung = tested on: NCI-H322M lung
NCI-H460 NSCLC = tested on: NCI-H460 NSCLC
NCI-H522 lung = tested on: NCI-H522 lung
NCI/ADR-RES ovarian = tested on: NCI/ADR-RES ovarian
OVCAR-3 ovarian = tested on: OVCAR-3 ovarian
OVCAR-4 ovarian = tested on: OVCAR-4 ovarian
OVCAR-5 ovarian = tested on: OVCAR-5 ovarian
OVCAR-8 ovarian = tested on: OVCAR-8 ovarian
PC-3 prostate = tested on: PC-3 prostate
RPMI-8226 leukemia = tested on: RPMI-8226 leukemia
RXF 393 renal = tested on: RXF 393 renal
SF-268 CNS = tested on: SF-268 CNS
SF-295 CNS = tested on: SF-295 CNS
SF-539 CNS = tested on: SF-539 CNS
SK-MEL-28 melanoma = tested on: SK-MEL-28 melanoma
SK-MEL-5 melanoma = tested on: SK-MEL-5 melanoma
SK-OV-3 ovarian = tested on: SK-OV-3 ovarian
SN12C renal = tested on: SN12C renal
SNB-19 CNS = tested on: SNB-19 CNS
SNB-75 CNS = tested on: SNB-75 CNS
SR leukemia = tested on: SR leukemia
SW-620 colon = tested on: SW-620 colon
T-47D breast = tested on: T-47D breast
TK-10 renal = tested on: TK-10 renal
U251 glioblastoma = tested on: U251 glioblastoma
UACC-257 melanoma = tested on: UACC-257 melanoma
UACC-62 melanoma = tested on: UACC-62 melanoma

For `Nc1nc(N)c(N=O)c(OCC2CCCCC2)n1`, the GI50 (786-0 renal) was 23.9 µM, the TGI (786-0 renal) was greater than 100 µM and the GI50 (A498 renal) was 5.34 µM. The TGI (A498 renal) was 25.3 µM, the GI50 (A549 NSCLC) was 17.6 µM and the TGI (A549 NSCLC) was 64.1 µM. For the same compound, the GI50 (ACHN renal) was 27.3 µM, the TGI (ACHN renal) was 85.9 µM and the GI50 (BT-549 breast) was 5.63 µM. The TGI (BT-549 breast) was 26.1 µM, the GI50 (CAKI-1 renal) was 8.55 µM and the TGI (CAKI-1 renal) was 31.6 µM. For the same compound, the GI50 (CCRF-CEM leukemia) was 4.9 µM, the TGI (CCRF-CEM leukemia) was 17 µM and the GI50 (COLO 205 colon) was 23.6 µM. For the same compound, the TGI (COLO 205 colon) was 56 µM, the GI50 (DU-145 prostate) was 13.2 µM and the TGI (DU-145 prostate) was greater than 100 µM. The GI50 (EKVX NSCLC) was 22.3 µM, the TGI (EKVX NSCLC) was 70.3 µM and the GI50 (HCC-2998 colon) was 15.1 µM. For the same compound, the TGI (HCC-2998 colon) was greater than 100 µM, the GI50 (HCT-15 colon) was 5.06 µM and the TGI (HCT-15 colon) was greater than 100 µM. For the same compound, the GI50 (HL-60(TB) leukemia) was 15 µM, the TGI (HL-60(TB) leukemia) was 32.8 µM and the GI50 (HOP-62 NSCLC) was 4.57 µM. The TGI (HOP-62 NSCLC) was 24.7 µM, the GI50 (HOP-92 NSCLC) was 9.41 µM and the TGI (HOP-92 NSCLC) was 36.9 µM. For the same compound, the GI50 (HS 578T breast) was 4.02 µM, the TGI (HS 578T breast) was 16.2 µM and the GI50 (HT29 colon) was 19.3 µM. The TGI (HT29 colon) was 90.6 µM, the GI50 (IGROV1 ovarian) was 4.21 µM and the TGI (IGROV1 ovarian) was 18.1 µM. It also gave a GI50 (KM12 colon) of 21.4 µM, a TGI (KM12 colon) greater than 100 µM and a GI50 (M14 melanoma) of 11.4 µM. The TGI (M14 melanoma) was 79 µM, the GI50 (MALME-3M melanoma) was 8.62 µM and the TGI (MALME-3M melanoma) was 41.9 µM. For the same compound, the GI50 (MCF7 breast) was 5.22 µM, the TGI (MCF7 breast) was 91.6 µM and the GI50 (MDA-MB-231 breast) was 10.9 µM. The TGI (MDA-MB-231 breast) was 66 µM, the GI50 (MDA-MB-435 melanoma) was 25.4 µM and the TGI (MDA-MB-435 melanoma) was greater than 100 µM. For the same compound, the GI50 (MDA-MB-468 breast) was 3.29 µM, the TGI (MDA-MB-468 breast) was 10.8 µM and the GI50 (MOLT-4 leukemia) was 5.83 µM. The TGI (MOLT-4 leukemia) was 17.9 µM, the GI50 (NCI-H226 lung) was 10.9 µM and the TGI (NCI-H226 lung) was 54.1 µM. It also gave a GI50 (NCI-H23 lung) of 15.6 µM, a TGI (NCI-H23 lung) of 46.6 µM and a GI50 (NCI-H322M lung) of 24.6 µM. It also gave a TGI (NCI-H322M lung) greater than 100 µM, a GI50 (NCI-H460 NSCLC) of 4.94 µM and a TGI (NCI-H460 NSCLC) of 26.7 µM. The GI50 (NCI-H522 lung) was 5.92 µM, the TGI (NCI-H522 lung) was 25.1 µM and the GI50 (NCI/ADR-RES ovarian) was 30.6 µM. For the same compound, the TGI (NCI/ADR-RES ovarian) was greater than 100 µM, the GI50 (OVCAR-3 ovarian) was 17.1 µM and the TGI (OVCAR-3 ovarian) was greater than 100 µM. For the same compound, the GI50 (OVCAR-4 ovarian) was 19.2 µM, the TGI (OVCAR-4 ovarian) was 49.3 µM and the GI50 (OVCAR-5 ovarian) was 17.2 µM. The TGI (OVCAR-5 ovarian) was 82.2 µM, the GI50 (OVCAR-8 ovarian) was 32.9 µM and the TGI (OVCAR-8 ovarian) was greater than 100 µM. The GI50 (PC-3 prostate) was 7.78 µM, the TGI (PC-3 prostate) was 49.4 µM and the GI50 (RPMI-8226 leukemia) was 4.88 µM. It also gave a TGI (RPMI-8226 leukemia) of 13.9 µM, a GI50 (RXF 393 renal) of 5.32 µM and a TGI (RXF 393 renal) of 27.1 µM. The GI50 (SF-268 CNS) was 21.2 µM, the TGI (SF-268 CNS) was 78.7 µM and the GI50 (SF-295 CNS) was 26 µM. The TGI (SF-295 CNS) was 87 µM, the GI50 (SF-539 CNS) was 18.5 µM and the TGI (SF-539 CNS) was 67.1 µM. The GI50 (SK-MEL-28 melanoma) was 22.3 µM, the TGI (SK-MEL-28 melanoma) was 97.1 µM and the GI50 (SK-MEL-5 melanoma) was 17.1 µM. It also gave a TGI (SK-MEL-5 melanoma) of 46.5 µM, a GI50 (SK-OV-3 ovarian) of 15 µM and a TGI (SK-OV-3 ovarian) of 37.6 µM. The GI50 (SN12C renal) was 13.6 µM, the TGI (SN12C renal) was 57.1 µM and the GI50 (SNB-19 CNS) was 31.1 µM. The TGI (SNB-19 CNS) was greater than 100 µM, the GI50 (SNB-75 CNS) was 4.38 µM and the TGI (SNB-75 CNS) was 19.7 µM. For the same compound, the GI50 (SR leukemia) was 3.46 µM, the TGI (SR leukemia) was 8.82 µM and the GI50 (SW-620 colon) was 45.9 µM. The TGI (SW-620 colon) was greater than 100 µM, the GI50 (T-47D breast) was 6.41 µM and the TGI (T-47D breast) was 33.1 µM. The GI50 (TK-10 renal) was 7.67 µM, the TGI (TK-10 renal) was 30 µM and the GI50 (U251 glioblastoma) was 17.2 µM. For the same compound, the TGI (U251 glioblastoma) was 58.8 µM, the GI50 (UACC-257 melanoma) was 23.6 µM and the TGI (UACC-257 melanoma) was greater than 100 µM. The GI50 (UACC-62 melanoma) was 14.5 µM and the TGI (UACC-62 melanoma) was 38.7 µM.
